Tests used:
[1] = test system: UMN apical dendrites of hSOD1^G93A‐UeGFP mice; assay: UMN apical dendrites with vacuoles, hSOD1^G93A‐UeGFP mice; assay type: in vivo; settings: for Mean, Fig. 4G (UMN apical dendrites with vacuoles): hSOD1G93A-UeGFP mice; for percentage of UMNs with vacuolated apical dendrites: hSOD1^G93A‐UeGFP mice
Experimental: (§1) hSOD1^G93A‐UeGFP, prpTDP‐43^A315T‐UeGFP and WT‐UeGFP mice were weighed and the required NU‐9 dose per weight was calculated (20 or 100 mg/kg), which was administered once daily by oral gavage, starting at postnatal day (P)60 and continuing until P120. Animals from the untreated group received the vehicle (NMP and olive oil) only. For oral administration purposes, 20 ga × 38 mm plastic feeding tubes were used (Instech Laboratories, Inc). The gavage tip was inserted into the mouth directly over the tongue and into the pharynx. While observing the swallowing reflex, the tip was safely and smoothly slid into the esophagus. Once the administration was completed, the gavage tip was pulled straight out.
Mice were deeply anesthetized using ketamine (90 mg/kg) with xylazine (10 mg/kg), and transcardially perfused with 4% PFA in PBS. The brains were removed intact and postfixed (4% PFA, overnight) and stored in PBS with sodium azide (0.01%) at 4°C. Sections were cut in a coronal (50 µm) plane using a vibratome (Leica) and processed for immunocytochemical analyses.
The antibodies used are as follows: anti‐GFP (1:1000, Invitrogen; or 1:1000, Abcam) and anti‐misfolded SOD1 (B8H10, 1:250, Médimabs). Briefly, sections were treated with blocking solution (PBS, 0.05% BSA, 2% FBS, 1% Triton X‐100, and 0.1% saponin) for 30 min at room temperature and incubated with primary antibody diluted in blocking solution overnight at 4°C. Appropriate secondary fluorescent antibodies (1:500, AlexaFluor‐conjugated, Invitrogen) were added to the blocking solution at room temperature for 2 h in the dark.

[2] = test system: UMNs in the motor cortex of WT‐UeGFP mice; assay: UMN quantification in motor cortex, WT‐UeGFP mice; assay type: in vivo
Experimental: as §1
Since UMNs are genetically labeled with eGFP expression in the motor cortex of WT‐UeGFP, hSOD1^G93A‐UeGFP, and prpTDP‐43^A315T‐UeGFP mice, UMNs were identified based on the GFP expression. Quantitative analyses were performed on three matched rostrocaudal sections spanning the motor cortex. Three images per subject were taken to capture a 4× objective filed that encompass layer 5 of the motor cortex. An inverted epifluorescent Eclipse TE2000‐E microscope (Nikon) with the same exposure time and intensity was used. UMNs were counted only if their soma and apical dendrite were both visualized in the same 50‐µm thick section. Images were analyzed in ImageJ (NIH) using the Find maxima processing command to determine the local maxima within a predetermined region of interest that circumscribes the layer 5 of the motor cortex. A universal noise tolerance, which ignores the local maxima corresponding to background and autofluorescence, was applied to all images.

[3] = test system: LMNs in the lumbar spinal cord of hSOD1^G93A‐UeGFP mice; assay: Lower motor neuron (LMN) quantification in lumbar spinal cord, hSOD1^G93A‐UeGFP mice; assay type: in vivo; settings: for Mean, Fig. 8E (LMN quantification in lumbar spinal cord) / Mean, Fig. 8F (LMN quantification in lumbar spinal cord) / Mean, Fig. 8G (LMN quantification in lumbar spinal cord): hSOD1G93A-UeGFP mice; for number of LMNs per section, lumbar spinal cord / number of NeuN^+/ChAT^+ LMNs (vulnerable to degeneration): hSOD1^G93A‐UeGFP mice, P120
Experimental: as §1
A 5‐mm block of lumbar spinal cord was sectioned in 50‐µm thick sections with a vibratome (Leica), and every other section was used for immunohistochemical analysis. LMNs were identified based on their location in the ventral horn and expression of the molecular marker ChAT. 10× Images were captured using an inverted epifluorescent Eclipse TE2000‐E microscope (Nikon). GFP^+/ChAT^+ and NeuN^+/ChAT^+ LMNs were quantified per section. The average number of LMNs per section is reported per mouse with n = 5 mice per group.

[4] = test system: prpTDP‐43^A315T‐UeGFP mice; assay: Hanging wire test (max 60 s), prpTDP‐43^A315T‐UeGFP mice; assay type: in vivo; settings: for wire hanging, Predicted (LS) mean: prpTDP-43A315T-UeGFP (NU-9 100 mg/kg/day); for wire hanging, Average: prpTDP-43A315T-UeGFP, NU-9 100 mg/kg/day po
Experimental: as §1
Behavior data were collected from hSOD1^G93A‐UeGFP and WT‐UeGFP mice (starting at P60 and every 7 days until P116) and from prpTDP‐43^A315T‐UeGFP mice (at P60, P90, and P120) with the following number of mice for each group: WT‐UeGFP vehicle (n = 10), hSOD1^G93A‐UeGFP vehicle (n = 6), WT‐UeGFP 20 mg/kg/day NU‐9 (n = 5), hSOD1^G93A‐UeGFP 20 mg/kg/day NU‐9 (n = 7), WT‐UeGFP 100 mg/kg/day NU‐9 (n = 11), hSOD1^G93A‐UeGFP 100 mg/kg/day NU‐9 (n = 9), prpTDP‐43^A315T‐UeGFP untreated (n ≥ 3), and prpTDP‐43^A315T‐UeGFP 100 mg/kg/day NU‐9 (n = 4) (Table S3).
Mice were placed on a wire mesh, which was then inverted and suspended above the home cage; the time when the animal fell was recorded. This test was performed three times for a maximum of 60 s each session, with a 1‐min rest period between each trial. The average performance for each session is presented as the average of the three trials.

[5] = cited from earlier work
[6] = test system: Caco‐2; parameters: method as in PMID 22189273, PMID 22837812; settings: cited from earlier work
[7] = test system: cortical neurons; parameters: method as in earlier work; settings: ref 53 (compound 2), ref 54 (NU‐9); cited from earlier work
[8] = test system: mice; settings: cited from earlier work
[9] = hSOD1G93A-UeGFP vehicle minus NU-9 20 mg/kg/day, Tukey's multiple comparisons test
[10] = hSOD1G93A-UeGFP vehicle minus NU-9 100 mg/kg/day, Tukey's multiple comparisons test
[11] = WT-UeGFP mice, NU-9 100 mg/kg/day
[12] = WT-UeGFP vehicle minus NU-9 100 mg/kg/day, Tukey's multiple comparisons test

C[C@H](Oc1cc(C(F)(F)F)cc(C(F)(F)F)c1)C1CC(=O)CC(=O)C1 [NU‐9]
Mean, Fig. 4G (UMN apical dendrites with vacuoles) ([1]; NU-9 20 mg/kg/day): 43.86
Mean, Fig. 4G (UMN apical dendrites with vacuoles) ([1]; NU-9 100 mg/kg/day): 23.28
Mean Diff., Fig. 4G, GS Vehicle vs. GS NU-9 (20) [1, 9]: 32.38
Mean Diff., Fig. 4G, GS Vehicle vs. GS NU-9 (100) [1, 10]: 52.96
percentage of UMNs with vacuolated apical dendrites ([1]; 20 mg/kg/day oral gavage P60–P120): 44% ± 7%
percentage of UMNs with vacuolated apical dendrites ([1]; 100 mg/kg/day oral gavage P60–P120): 23% ± 10%
Mean, Fig. 5E (UMN quantification in motor cortex) [2, 11]: 65.5
Mean, Fig. 7H (UMN quantification in motor cortex) [2, 11]: 65.5
Mean Diff., Fig. 5E, G Vehicle vs. G NU-9 (100) [2, 12]: -6.183
Mean Diff., Fig. 7H, G Vehicle vs. G NU-9 (100) [2, 12]: -6.183
average number of UMNs per section in the motor cortex ([2]; WT‐UeGFP mice, 100 mg/kg/day oral gavage P60–P120): 66 ± 1 UMNs
Mean, Fig. 8E (LMN quantification in lumbar spinal cord) ([3]; NU-9 20 mg/kg/day): 12.11
Mean, Fig. 8F (LMN quantification in lumbar spinal cord) ([3]; NU-9 20 mg/kg/day): 6.506
Mean, Fig. 8G (LMN quantification in lumbar spinal cord) ([3]; NU-9 20 mg/kg/day): 18.62
Mean, Fig. 8E (LMN quantification in lumbar spinal cord) ([3]; NU-9 100 mg/kg/day): 9.708
Mean, Fig. 8F (LMN quantification in lumbar spinal cord) ([3]; NU-9 100 mg/kg/day): 4.426
Mean, Fig. 8G (LMN quantification in lumbar spinal cord) ([3]; NU-9 100 mg/kg/day): 14.13
Mean Diff., Fig. 8E, GS Vehicle vs. GS NU-9 (20) [3, 9]: -1.853
Mean Diff., Fig. 8F, GS Vehicle vs. GS NU-9 (20) [3, 9]: 0.3602
Mean Diff., Fig. 8G, GS Vehicle vs. GS NU-9 (20) [3, 9]: -1.493
Mean Diff., Fig. 8E, GS Vehicle vs. GS NU-9 (100) [3, 10]: 0.5524
Mean Diff., Fig. 8F, GS Vehicle vs. GS NU-9 (100) [3, 10]: 2.44
Mean Diff., Fig. 8G, GS Vehicle vs. GS NU-9 (100) [3, 10]: 2.992
number of LMNs per section, lumbar spinal cord ([3]; 20 mg/kg/day): 18.6 ± 0.4 LMN
number of NeuN^+/ChAT^+ LMNs (vulnerable to degeneration) ([3]; 20 mg/kg/day): 12.1 ± 0.4 LMN
number of LMNs per section, lumbar spinal cord ([3]; 100 mg/kg/day): 14.1 ± 1.3 LMN
number of NeuN^+/ChAT^+ LMNs (vulnerable to degeneration) ([3]; 100 mg/kg/day): 9.7 ± 0.9 LMN
numbers of GFP^+ and ChAT^+ LMN (resistant to degeneration) ([3]; regardless of genotype or treatment): comparable
wire hanging, Predicted (LS) mean ([4]; P60, mixed-effects analysis): 56.83
wire hanging, Predicted (LS) mean ([4]; P90, mixed-effects analysis): 57.17
wire hanging, Predicted (LS) mean ([4]; P120, mixed-effects analysis): 59.67
wire hanging, Average ([4]; P60): 55.7778
wire hanging, Average ([4]; P90): 56.2222
wire hanging, Average ([4]; P120): 59.5556
hanging wire test, latency to fall ([4]; prpTDP‐43^A315T mice, 100 mg/kg/day, P120): 59.5 ± 0.3 s
plasma stability t 1/2 [5]: > 2 h
Caco‐2 A→B [6]: 24.1 × 10^–6 cm/s
Caco‐2 B→A [6]: 1.5 × 10^–6 cm/s
Caco‐2 Efflux ratio [6]: 0.06
penetration into neurons [7]: penetrated cortical neurons
MTD ([8]; ip): 1280 mg/kg
NOAEL ([8]; po, 7‐day repeat toxicology study): 100 mg/kg

From publication PMC7898037, “Improving mitochondria and ER stability helps eliminate upper motor neuron degeneration that occurs due to mSOD1 toxicity and TDP‐43 pathology” (Clinical and Translational Medicine, 2021)
